Assay [1] addresses T1, isolated recombinant JAK1 kinase domain (Homo sapiens, UniProt P23458).
T1 construct: isolated recombinant JAK1 and JAK2 kinase domain
As to the kind of experiment: JAK enzyme assay, JAK1 kinase domain (Caliper LabChip). The settings on record: 1.5 nM JAK1, ATP 25 μM, Morrison tight binding model. Type of assay: biochemical. In a few lines: (§1)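 Recombinant kinase domains phosphorylated a 5-carboxyfluorescein-labelled JAK3-derived peptide for 30 min at 22 °C, and the reaction was stopped with EDTA (50 mM final). Product fraction was measured by Caliper LabChip mobility shift. Ki came from Morrison tight-binding fits corrected for ATP competition (Ki=Ki,app/(1+[ATP]/Km,app)).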

In assay [2] the target is T2, isolated recombinant JAK2 kinase domain (Homo sapiens, UniProt O60674).
T2 construct: isolated recombinant JAK1 and JAK2 kinase domain
T2 sequence (O60674 849-1124 limits assumed): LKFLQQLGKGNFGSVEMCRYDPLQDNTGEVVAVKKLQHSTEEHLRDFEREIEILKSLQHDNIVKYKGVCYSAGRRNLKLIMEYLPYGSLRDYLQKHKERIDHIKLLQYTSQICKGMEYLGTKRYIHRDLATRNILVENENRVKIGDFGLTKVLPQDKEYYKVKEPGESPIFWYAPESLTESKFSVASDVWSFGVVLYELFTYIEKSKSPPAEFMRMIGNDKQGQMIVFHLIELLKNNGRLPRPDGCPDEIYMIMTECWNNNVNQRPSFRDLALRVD
Briefly: JAK enzyme assay, JAK2 kinase domain (Caliper LabChip). Type of assay: biochemical. The conditions noted are these: 0.2 nM JAK2, ATP 25 μM, Morrison tight binding model. Summed up: as §1

Assay [3] has as its system JAK1-dependent STAT6 phosphorylation downstream of IL-13 stimulation in BEAS-2B cells. As to the kind of experiment: JAK1 pathway assay in cell lines: IL-13 p-STAT6 BEAS-2B. Type of assay: cell-based. The settings on record: BEAS-2B human bronchial epithelial cells, 1 hr compound, IL-13 15 min, MSD readout. Summed up:
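BEAS-2B cells plated a day ahead in complete growth medium; compounds added 1 hr at 37 °C (0.2% DMSO final), then IL-13 at lot-specific EC90 for 15 min at 37 °C. Phospho-STAT6 in lysates measured by MSD; EC50 is 50% inhibition relative to DMSO control.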

Each structure is given as a SMILES string.

T1 sequence (P23458 875-1153 limits assumed): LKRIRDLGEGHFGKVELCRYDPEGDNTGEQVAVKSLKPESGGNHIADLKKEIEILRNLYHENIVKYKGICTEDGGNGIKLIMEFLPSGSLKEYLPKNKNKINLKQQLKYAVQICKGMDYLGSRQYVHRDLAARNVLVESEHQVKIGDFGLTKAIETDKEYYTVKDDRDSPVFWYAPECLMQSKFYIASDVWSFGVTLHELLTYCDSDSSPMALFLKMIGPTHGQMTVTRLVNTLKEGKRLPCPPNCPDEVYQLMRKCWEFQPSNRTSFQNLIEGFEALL

As to `CC(C)c1cnn(C2(CC#N)CN(c3cccn4nc(Nc5cnn(CC(=O)N6CCN(C)CC6)c5)nc34)C2)c1` [Example 56, formic acid;2-[3-(4-isopropyipyrazol-1-yl)-1-[2-[[1-[2-(4-methylpiperazin-1-yl)-2-oxo-ethyl]pyrazol-4-yl]amino]-[1,2,4]triazolo[1,5-a]pyridin-8-yl]azetidin-3-yl]acetonitrile], the values for the inhibitory constant (Ki) in assay [1] and in assay [2] were 2.3 nM and 10.5 nM, respectively. Moreover, the 50% effective concentration (EC50) in assay [3] came to 319 nM.

`COc1cnn(C2(CC#N)CN(c3cccn4nc(Nc5cnn(CC(=O)N6CCN(C)CC6)c5)nc34)C2)c1` [Example 28, 2-[3-(4-methoxypyrazol-1-yl)-1-[2-[[1-[2-(4-methylpiperazin-1-yl)-2-oxo-ethyl]pyrazol-4-yl]amino]-[1,2,4]triazolo[1,5-a]pyridin-8-yl]azetidin-3-yl]acetonitrile]: the Ki amounted to 0.4 nM in assay [1] and 1.4 nM in assay [2]. Besides, the 50% effective concentration (EC50) in assay [3] was determined as 54 nM.

With `CCc1cnn(C2(CC#N)CN(c3cccn4nc(Nc5cnn(CC(F)F)c5)nc34)C2)c1` [Example 148, 2-[1-[2-[[1-(2,2-difluoroethyl)pyrazol-4-yl]amino]-[1,2,4]triazolo[1,5-a]pyridin-8-yl]-3-(4-ethylpyrazol-1-yl)azetidin-3-yl]acetonitrile], the inhibitory constant (Ki) is 0.1 nM in assay [1] and 0.4 nM in assay [2]. This compound also yielded an EC50 in assay [3] of 8 nM.

Take `CN1CCN(C(=O)Cc2ccc(Nc3nc4c(N5CC(CC#N)(n6cc(C(F)(F)F)cn6)C5)cccn4n3)cc2)CC1` [Example 116, formic acid;2-[1-[2-[4-[2-(4-methylpiperazin-1-yl)-2-oxo-ethyl]anilino]-[1,2,4]triazolo[1,5-a]pyridin-8-yl]-3-[4-(trifluoromethyl)pyrazol-1-yl]azetidin-3-yl]acetonitrile]: the Ki was found to be 0.6 nM in assay [1] and 4 nM in assay [2]. In assay [3], this compound had an EC50 of 90 nM.

For `CCc1cnn(C2(CC#N)CN(c3cccn4nc(Nc5ccc6c(c5)CCN([C@@H]5CCOC5)C6)nc34)C2)c1` (stereo in doubt) [Example 61, 2-[3-(4-ethylpyrazol-1-yl)-1-[2-[[2-[rac-(3R)-tetrahydrofuran-3-yl]-3,4-dihydro-1H-isoquinolin-6-yl]amino]-[1,2,4]triazolo[1,5-a]pyridin-8-yl]azetidin-3-yl]acetonitrile], the Ki in assay [1] and in assay [2] was 0.4 nM each time. Also, the midpoint of the response in assay [3], the EC50, lay at 8 nM.

In the case of `CN1CCN(C(=O)Cn2cc(Nc3nc4c(N5CC(CC#N)(c6cccc(Cl)c6)C5)cccn4n3)cn2)CC1` [Example 35, 2-[3-(3-chlorophenyl)-1-[2-[[1-[2-(4-methylpiperazin-1-yl)-2-oxo-ethyl]pyrazol-4-yl]amino]-[1,2,4]triazolo[1,5-a]pyridin-8-yl]azetidin-3-yl]acetonitrile], the values for the Ki in assay [1] and in assay [2] were 0.8 nM and 2.8 nM, respectively. This compound came in with an EC50 in assay [3] of 39 nM.

`CN1CCN(C(=O)Cn2cc(Nc3nc4c(N5CC(CC#N)(n6cc(C7CCCCC7)cn6)C5)cccn4n3)cn2)CC1` [Example 55]: the results for the Ki in assay [1] and in assay [2] were 1 nM and 5.7 nM, respectively. Further, the concentration giving a half-maximal response (EC50) in assay [3] is 137 nM.

As to `CCc1cnn(C2(CC#N)CN(c3cccn4nc(Nc5ccc6c(c5)CCN(C5CCOCC5)C6)nc34)C2)c1` [Example 57, 2-[3-(4-ethylpyrazol-1-yl)-1-[2-[(2-tetrahydropyran-4-yl-3,4-dihydro-1H-isoquinolin-6-yl)amino]-[1,2,4]triazolo[1,5-a]pyridin-8-yl]azetidin-3-yl]acetonitrile], the inhibition constant (Ki) in assay [1] came out at 0.3 nM; in assay [2], 1.3 nM. In addition, in assay [3], the response was half-maximal at 12 nM (EC50).

`CN1CCN(C(=O)Cn2cc(Nc3nc4c(N5CC(CC#N)(N6CCOCC6)C5)cccn4n3)cn2)CC1` [Example 8]: the figures for the Ki in assay [1] and in assay [2] were 0.3 nM and 1.5 nM, respectively. The compound also came in with an EC50 in assay [3] of 12 nM.

Regarding `N#CCC1(n2cc(C(F)(F)F)cn2)CN(c2cccn3nc(Nc4cn[nH]c4)nc23)C1` [Example 131, 2-[1-[2-(1H-pyrazol-4-ylamino)-[1,2,4]triazolo[1,5-a]pyridin-8-yl]-3-[4-(trifluoromethyl)pyrazol-1-yl]azetidin-3-yl]acetonitrile], the Ki turned out to be 0.2 nM in assay [1] and 0.4 nM in assay [2]. The compound further had an EC50 in assay [3] of 43 nM.

For `CSc1ccc(C2(CC#N)CN(c3cccn4nc(Nc5cnn(CC(=O)N6CCN(C)CC6)c5)nc34)C2)cc1` [Example 14], the Ki came out at 1.8 nM in assay [1] and 4.5 nM in assay [2]. Moreover, the midpoint of the response in assay [3], the EC50, lay at 72 nM.

On to `Cc1cc(Cl)ccc1C1(CC#N)CN(c2cccn3nc(Nc4cnn(CC(=O)N5CCN(C)CC5)c4)nc23)C1` [Example 24, 2-[3-(4-chloro-2-methyl-phenyl)-1-[2-[[1-[2-(4-methylpiperazin-1-yl)-2-oxo-ethyl]pyrazol-4-yl]amino]-[1,2,4]triazolo[1,5-a]pyridin-8-yl]azetidin-3-yl]acetonitrile], for which the inhibition constant (Ki) came to 0.4 nM in assay [1] and 2.3 nM in assay [2]. In addition, it took 87 nM to reach a half-maximal effect in assay [3] (EC50).

As to `CSc1cnn(C2(CC#N)CN(c3cccn4nc(Nc5cn[nH]c5)nc34)C2)c1` [Example 144, 2-[3-(4-methylsulfanyIpyrazol-1-yl)-1-[2-(1H-pyrazol-4-ylamino)-[1,2,4]triazolo[1,5-a]pyridin-8-yl]azetidin-3-yl]acetonitrile], the figures for the Ki in assay [1] and in assay [2] were 0.1 nM and 0.3 nM, respectively. For the same compound, the EC50 in assay [3] came out at 7 nM.

Turning to `CN1CCN(C(=O)Cn2cc(Nc3nc4c(N5CC(CC#N)(N6CCC(C(F)(F)F)CC6)C5)cccn4n3)cn2)CC1` [Example 11], the Ki in assay [1] is 1.3 nM; in assay [2], 5.8 nM. In assay [3], this compound displayed a half-maximal effective concentration (EC50) of 37 nM.

Take `CCc1cnn(C2(CC#N)CN(c3cccn4nc(Nc5cnn[nH]5)nc34)C2)c1` [Example 152, 2-(1-(2-((1H-1,2,3-triazol-5-yl)amino)-[1,2,4]triazolo[1,5-a]pyridin-8-yl)-3-(4-ethyl-1H-pyrazol-1-yl)azetidin-3-yl)acetonitrile]: the results for the inhibition constant Ki in assay [1] and in assay [2] were 0.7 nM and 0.1 nM, respectively. The EC50 in assay [3] amounted to 5 nM.

For `CCc1cnn(C2(CC#N)CN(c3cccn4nc(Nc5cnn(CC(=O)N6CCC(CN7CCN(CC(=O)N(C)C)CC7)CC6)c5)nc34)C2)c1` [Example 42, 2-[4-[[1-[2-[4-[[8-[3-(cyanomethyl)-3-(4-ethylpyrazol-1-yl)azetidin-1-yl]-[1,2,4]triazolo[1,5-a]pyridin-2-yl]amino]pyrazol-1-yl]acetyl]-4-piperidyl]methyl]piperazin-1-yl]-N,N-dimethyl-acetamide], the values for the Ki in assay [1] and in assay [2] were 0.4 nM and 2.2 nM, respectively. For the same compound, the EC50 in assay [3] worked out at 42 nM.

Consider `CCc1cnn(C2(CC#N)CN(c3cccn4nc(Nc5ccc(C(=O)N6CCN(C7COC7)CC6)cc5)nc34)C2)c1` [Example 44, 2-[3-(4-ethylpyrazol-1-yl)-1-[2-[4-[4-(oxetan-3-yl)piperazine-1-carbonyl]anilino]-[1,2,4]triazolo[1,5-a]pyridin-8-yl]azetidin-3-yl]acetonitrile], for which the inhibition constant Ki in assay [1] was determined as 2.2 nM; in assay [2], 29.5 nM. For the same compound, the EC50 in assay [3] came to 648 nM.

`CCc1cnn(C2(CC#N)CN(c3cccn4nc(Nc5ccc(C(=O)N6CC7(CCN(C8COC8)CC7)C6)cc5)nc34)C2)c1` [Example 86, 2-[3-(4-ethylpyrazol-1-yl)-1-[2-[4-[7-(oxetan-3-yl)-2,7-diazaspiro[3.5]nonane-2-carbonyl]anilino]-[1,2,4]triazolo[1,5-a]pyridin-8-yl]azetidin-3-yl]acetonitrile]: the Ki in assay [1] and in assay [2] was 0.2 nM in each case. Further, the response in assay [3] was half-maximal at 11 nM (EC50).

Take `CCc1cnn(C2(CC#N)CN(c3cccn4nc(Nc5ccc(C(=O)N6CC(C(=O)N7CCN(C)CC7)C6)cc5)nc34)C2)c1` [Example 65, 2-[3-(4-ethylpyrazol-1-yl)-1-[2-[4-[3-(4-methylpiperazine-1-carbonyl)azetidine-1-carbonyl]anilino]-[1,2,4]triazolo[1,5-a]pyridin-8-yl]azetidin-3-yl]acetonitrile]: the Ki was 0.5 nM in assay [1] and 1.3 nM in assay [2]. Moreover, in assay [3], the EC50 was 86 nM.

For the compound `CCc1cnn(C2(CC#N)CN(c3cccn4nc(Nc5ccc(C(=O)N6CCN(C)CC6)cc5)nc34)C2)c1` [Example 38, 2-(3-(4-ethyl-1H-pyrazol-1-yl)-1-(2-((4-(4-methylpiperazine-1-carbonyl)phenyl)amino)-[1,2,4]triazolo[1,5-a]pyridin-8-yl)azetidin-3-yl)acetonitrile], the Ki in assay [1] came to 0.7 nM; in assay [2], 4.1 nM. The EC50 in assay [3] amounted to 615 nM.

As for `CCc1cnn(C2(CC#N)CN(c3cccn4nc(Nc5ccc(C(=O)N6CCN(C)CC6)c(OC)c5)nc34)C2)c1` [Example 106, 2-[3-(4-ethylpyrazol-1-yl)-1-[2-[3-methoxy-4-(4-methylpiperazine-1-carbonyl)anilino]-[1,2,4]triazolo[1,5-a]pyridin-8-yl]azetidin-3-yl]acetonitrile], the Ki in assay [1] came to 0.5 nM; in assay [2] it was 1.3 nM. In assay [3], the midpoint of the response, the EC50, lay at 40 nM.

Consider `CCc1cnn(C2(CC#N)CN(c3cccn4nc(Nc5ccc(CC(=O)N6CCN(C)CC6)cc5)nc34)C2)c1` [Example 73, 2-[3-(4-ethylpyrazol-1-yl)-1-[2-[4-[2-(4-methylpiperazin-1-yl)-2-oxo-ethyl]anilino]-[1,2,4]triazolo[1,5-a]pyridin-8-yl]azetidin-3-yl]acetonitrile], for which the figures for the Ki in assay [1] and in assay [2] were 0.7 nM and 0.3 nM, respectively. This compound also gave a 50% effective concentration (EC50) in assay [3] of 18 nM.
